In US11291651B2, “Glycopyrrolate salts” (Journey Medical Corporation, priority 2013, dated 2022):

Experiments:
[1] = system: hyperhidrosis; details: topically applied; compared with aluminum chloride; cited from earlier work
[2] = system: patients suffering from hyperhidrosis; experiment: study in patients suffering from hyperhidrosis treated with 2% and 4% glycopyrrolate formulations; type: in vivo
Description: (§1) By topical, what is meant is a material or formulation comprising or containing glycopyrrolate tosylate which may be used to deliver glycopyrrolate tosylate, including a pharmaceutically effective amount of glycopyrrolate tosylate, to a patient. In many embodiments, the glycopyrrolate tosylate is threo glycopyrrolate tosylate. Examples of a topical include, but are not limited to, solutions, ointments, gels, lotions, powders, sprays, creams, cream bases, patches, pastes, washes, dressings, masks, gauzes, bandages, swabs, brushes, or pads. The application of the topical may be controlled by controlling the dose amount or the rate of release. The dose may be controlled by dissolving or dispensing threo glycopyrrolate tosylate, for example, in the appropriate medium. These and other dose controlling formulations may be used to deliver controlled doses such as specific unit doses, metered doses, or multiple doses from the topical.

[3] = target: M3 muscarinic acetylcholine receptor (Homo sapiens, UniProt P20309); experiment: binding affinity for the M3 muscarinic acetylcholine receptor in vitro; details: glycopyrronium delivered as bromide or tosylate salt
Description: as §1, with “Such dose dependency is consistent with glycopyrrolate's anti-muscarinic activity. Accordingly, glycopyrrolate tosylate may also be used to treat hyperhidrosis in patients such as by administering a topical containing glycopyrrolate tosylate. By” for “By”

[4] = glass transition temperature by modulated DSC; type: physicochemical; details: amorphous solid
Description: DSC was performed using a TA Instruments 2920 differential scanning calorimeter. Temperature calibration was performed using NIST-traceable indium metal. The sample was placed into an aluminum DSC pan, covered with a lid, and the weight was accurately recorded. A weighed aluminum pan configured as the sample pan was placed on the reference side of the cell. Modulated DSC data (see, e.g., FIG. 23) were obtained on a TA Instruments Q2000 differential scanning calorimeter equipped with a refrigerated cooling system (RCS). Temperature calibration was performed using NIST-traceable indium metal. The sample was placed into an aluminum DSC pan, and the weight was accurately recorded. The pan was covered with a lid perforated with a laser pinhole, and the lid was hermetically sealed. A weighed, crimped aluminum pan was placed on the reference side of the cell. Data were obtained using a modulation amplitude of ±1° C. and a 60 second period with an underlying heating rate of 2° C./minute from −50 to 220° C. The reported glass transition temperatures are obtained from the inflection point of the step change in the reversing heat flow versus temperature curve.

[5] = exposed to standard atmospheric conditions
Description: In addition, the extremely low glass transition renders the amorphous form of glycopyrrolate challenging to formulate successfully.

Sequence of M3 muscarinic acetylcholine receptor (P20309 whole entry): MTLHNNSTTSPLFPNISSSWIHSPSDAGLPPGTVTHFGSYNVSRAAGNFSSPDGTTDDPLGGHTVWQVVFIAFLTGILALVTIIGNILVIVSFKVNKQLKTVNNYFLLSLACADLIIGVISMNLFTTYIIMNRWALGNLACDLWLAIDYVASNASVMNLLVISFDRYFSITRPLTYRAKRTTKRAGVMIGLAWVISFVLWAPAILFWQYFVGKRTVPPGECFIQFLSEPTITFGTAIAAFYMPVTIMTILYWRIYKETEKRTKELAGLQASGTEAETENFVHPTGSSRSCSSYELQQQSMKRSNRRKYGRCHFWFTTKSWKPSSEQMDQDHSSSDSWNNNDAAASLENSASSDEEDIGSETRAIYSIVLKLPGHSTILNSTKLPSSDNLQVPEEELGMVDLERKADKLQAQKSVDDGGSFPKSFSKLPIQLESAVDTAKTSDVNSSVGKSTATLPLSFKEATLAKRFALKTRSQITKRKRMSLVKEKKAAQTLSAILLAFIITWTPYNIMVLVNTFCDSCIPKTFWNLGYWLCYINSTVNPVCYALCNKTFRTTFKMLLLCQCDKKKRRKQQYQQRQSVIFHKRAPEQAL

C[N+]1(C)CCC(OC(=O)C(O)(c2ccccc2)C2CCCC2)C1 (stereo not drawn) [glycopyrrolate bromide, glycopyrronium bromide]
effectiveness [1]: increased effectiveness | efficacy responses ([2]; 2% and 4% glycopyrrolate formulations): dose dependent trend | axillary sweating ([2]; formulations containing 2% and 4% glycopyrrolate based on a glycopyrrolate bromide preparation): reduced | binding affinity for the M3 muscarinic acetylcholine receptor [3]: equivalent binding affinity

C[N+]1(C)CCC(OC(=O)C(O)(c2ccccc2)C2CCCC2)C1.Cc1ccc(S(=O)(=O)[O-])cc1.O (stereo not drawn) [amorphous glycopyrrolate tosylate]
onset of the glass transition temperature [4]: 11.6 °C | hygroscopicity [5]: extremely hygroscopic which deliquesced readily
